Experimental data as given in patent US8779157B2, “MGLUR4 allosteric potentiators, compositions, and methods of treating neurological dysfunction” (Vanderbilt University, priority 2009, dated 2014).

The molecules below were run against mGluR4 (UniProt Q14833) (assay: mGluR4 potentiation assay (fluorescence, Ca2+ or thallium/GIRK readout; EC20 agonist)). Details: half maximal effective concentration for mGluR4 potentiation; species of receptor not given.
Assay type: cell-based, human / rat
Method in brief: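 Human mGluR4 in CHO cells (Ca2+ dye) or rat mGluR4 with GIRK in HEK cells (thallium dye), read kinetically. Potentiation EC50 and maximum fitted from compound concentration-response at fixed agonist.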

Row | EC50 | SMILES
1 | 1100 nM | CC12CCCCN1C(=O)N(c1ccc(NC(=O)c3ncc(F)cc3F)cc1Cl)C2=O (stereo not shown) [Example 1.3.88, N-(3-chloro-4-(8a-methyl-1,3-dioxohexahydroimidazo[1,5-a]pyridin-2(3H)-yl)phenyl)-3,5-difluoropicolinamide]
2 | 4670 nM | CC12CCCCN1C(=O)N(c1ccc(NC(=O)c3ccc(Cl)o3)cc1Cl)C2=O (stereo not shown) [Example 1.3.89, 5-chloro-N-(3-chloro-4-(8a-methyl-1,3-dioxohexahydroimidazo[1,5-a]pyridin-2(3H)-yl)phenyl)furan-2-carboxamide]
3 | 1120 nM | CC12CCCCN1C(=O)N(c1ccc(NC(=O)c3cccc(F)n3)cc1Cl)C2=O (stereo not shown) [Example 1.3.90, N-(3-chloro-4-(8a-methyl-1,3-dioxohexahydroimidazo[1,5-a]pyridin-2(3H)-yl)phenyl)-6-fluoropicolinamide]
4 | 3790 nM | CC12CCCCN1C(=O)N(c1ccc(NC(=O)c3ncccc3F)cc1Cl)C2=O (stereo not shown) [Example 1.3.91, N-(3-chloro-4-(8a-methyl-1,3-dioxohexahydroimidazo[1,5-a]pyridin-2(3H)-yl)phenyl)-3-fluoropicolinamide]
5 | 1910 nM | CC12CCCCN1C(=S)N(c1ccc(NC(=O)c3cnccn3)cc1Cl)C2=O (stereo not shown) [Example 1.3.92, N-(3-chloro-4-(8a-methyl-1-oxo-3-thioxohexahydroimidazo[1,5-a]pyridin-2(3H)-yl)phenyl)pyrazine-2-carboxamide]
6 | 2400 nM | CC12CCCCN1C(=S)N(c1ccc(NC(=O)c3cccc(Cl)n3)cc1Cl)C2=O (stereo not shown) [Example 1.3.93, 6-chloro-N-(3-chloro-4-(8a-methyl-1-oxo-3-thioxohexahydroimidazo[1,5-a]pyridin-2(3H)-yl)phenyl)picolinamide]
7 | 761 nM | CC12CCCCN1C(=S)N(c1ccc(NC(=O)c3nccs3)cc1Cl)C2=O (stereo not shown) [Example 1.3.94, N-(3-chloro-4-(8a-methyl-1-oxo-3-thioxohexahydroimidazo[1,5-a]pyridin-2(3H)-yl)phenyl)thiazole-2-carboxamide]
8 | 1050 nM | CC12CCCCN1C(=S)N(c1ccc(NC(=O)c3cscn3)cc1Cl)C2=O (stereo not shown) [Example 1.3.95, N-(3-chloro-4-(8a-methyl-1-oxo-3-thioxohexahydroimidazo[1,5-a]pyridin-2(3H)-yl)phenyl)thiazole-4-carboxamide]
9 | 295 nM | CC12CCCCN1C(=S)N(c1ccc(NC(=O)c3ncc(F)cc3F)cc1Cl)C2=O (stereo not shown) [Example 1.3.96, N-(3-chloro-4-(8a-methyl-1-oxo-3-thioxohexahydroimidazo[1,5-a]pyridin-2(3H)-yl)phenyl)-3,5-difluoropicolinamide]
10 | 828 nM | CC12CCCCN1C(=S)N(c1ccc(NC(=O)c3ccc(Cl)o3)cc1Cl)C2=O (stereo not shown) [Example 1.3.97, 5-chloro-N-(3-chloro-4-(8a-methyl-1-oxo-3-thioxohexahydroimidazo[1,5-a]pyridin-2(3H)-yl)phenyl)furan-2-carboxamide]
11 | 470 nM | CC12CCCCN1C(=S)N(c1ccc(NC(=O)c3cccc(F)n3)cc1Cl)C2=O (stereo not shown) [Example 1.3.98, N-(3-chloro-4-(8a-methyl-1-oxo-3-thioxohexahydroimidazo[1,5-a]pyridin-2(3H)-yl)phenyl)-6-fluoropicolinamide]
12 | 650 nM | CC12CCCCN1C(=S)N(c1ccc(NC(=O)c3ncccc3F)cc1Cl)C2=O (stereo not shown) [Example 1.3.99, N-(3-chloro-4-(8a-methyl-1-oxo-3-thioxohexahydroimidazo[1,5-a]pyridin-2(3H)-yl)phenyl)-3-fluoropicolinamide]
13 | 1900 nM | CC12CCCCN1C(=S)N(c1ccc(NC(=O)c3cccnn3)cc1Cl)C2=O (stereo not shown) [Example 1.3.100, N-(3-chloro-4-(8a-methyl-1-oxo-3-thioxohexahydroimidazo[1,5-a]pyridin-2(3H)-yl)phenyl)pyridazine-3-carboxamide]
